Assay results as given in patent US8486464B2, “Herbal composition for angina pectoris, method to prepare same and uses thereof” (Tasly Pharmaceutical Group Co. Ltd., priority 2000, dated 2013).

Key:
Format in all cases: in vivo
ET, TXB2, 6-Keto-PGF1α = assay: Dog plasma ET, TXB2, 6-Keto-PGF1α; design: 6-Keto-PGF1α: unit not given beside the values; settings: dogs, Dan Shen Pill 2 g/kg, Diltiazem 5 mg/kg
Protocol: (§1) 1.1 Experimental Groups. (1) Blank control group, normal saline 3 ml/kg; (2) DSP group, 2 g natural drug/kg; (3) positive control group, Ditiazem, 5 mg/kg. All the above samples are diluted with normal saline to the same volume of 3 ml/kg and were given to the patient through the duodenum.
(§2) 1.2 Experimental Method. The dogs are anesthetized with pentobarbital sodium. Chests were opened and coronary arterioles and the central part of the dorsal lower branch separated and tied to create an acute myocardial ischemia model. ECGs were recorded and the level of myocardial ischemia (increased section ST, ST) and area of myocardial ischemia (the total increased decimal places in section ST) were calculated. The oxygen content in the coronary artery was recorded. Blood serum creatine kinase (CK), lactate dehydrogenase (LDH), ET, TXB2 and 6-Keto-PGF1 were measured. The oxygen content of the aorta and coronary vein, and blood flow volume in the coronary arteries were measured to calculate myocardial oxygen consumption. Blood oxygen content in the coronary vein was measured to calculate myocardial oxygen content (myocardial oxygen content=(blood oxygen content in arteries-blood oxygen content in coronary veins)×blood flow volume in coronary artery/100).

SOD, MDA = assay: Rat M-IR damage: SOD activity and MDA content in blood serum; settings: Wistar, 2 hrs after duodenal dosing, DSP 3.0 g/kg, Ditiazem 30 mg/kg
Protocol: (1) Experimental Groups. Control group (Serum taken as normal control), Model group (Normal Saline), Ditiazem group (30 mg/kg), DSP 6.0, 3.0 g/kg group. Each group was diluted to its necessary concentration with 3 ml/kg normal saline through the duodenum.
(2) Experimental Method. Wistar animal is anesthetized by pentobarbital sodium and fixed. Chests and cardial membranes are opened to expose the heart. A hole in the left lower dorsal part of the coronary artery is left for tying. Separate the duodenum, and infuse the tested drugs into it. Take blood from the abdomen after 2 hrs and test the MDA and SOD content in the blood serum.

myocardial ischemia = assay: Dog acute myocardial ischemia: level and area by ECG (Σ-ST, N-ST); settings: dogs, Dan Shen Pill 2 g/kg, Ditiazem 5 mg/kg
Protocol: as §1, §2
(§3) The significance of the experimental results was tested by the t-testing method.

[1] = system: venous blood oxygen content; assay: Dog coronary venous blood oxygen content; settings: dogs, Dan Shen Pill 2 g/kg, Ditiazem 5 mg/kg
Protocol: as §1, §2

myocardial infarction = assay: Dog myocardial infarction area (N-BT); settings: dogs; Dan Shen Pill 2 g/kg, Ditiazem 5 mg/kg
Protocol: as §1
The hearts were removed 180 mins after treatment and weighed, cut into slices, and colored with N-BT. The infarction area of each slice (N-BT-uncolorized area) and non-infarction area (N-BT colorized area) were measured. The percentage occupied by the infarction area in the ventricles was calculated and the whole heart was weighted.
as §3

## COc1ccc([C@@H]2Sc3ccccc3N(CCN(C)C)C(=O)[C@@H]2OC(C)=O)cc1 [Ditiazem]
ET, TXB2, 6-Keto-PGF1α; 30 min after dosage
  6-Keto-PGF1α: 1749.4 ± 278.3
  6-Keto-PGF1α, changing in percentage (before dosage = 100%): 118.95 ± 14.47 %
  ET, changing in percentage (before dosage = 100%): 85.14 ± 13.98 %
  TXB2, changing in percentage (before dosage = 100%): 101.14 ± 17.90 %
  blood plasma ET: 47.51 ± 7.39 pg/mL
  blood plasma TXB2: 143.40 ± 28.64 pg/mL
ET, TXB2, 6-Keto-PGF1α; 60 min after dosage
  6-Keto-PGF1α: 1902.6 ± 155.1
  6-Keto-PGF1α, changing in percentage (before dosage = 100%): 131.19 ± 16.98 %
  ET, changing in percentage (before dosage = 100%): 84.06 ± 18.24 %
  TXB2, changing in percentage (before dosage = 100%): 92.58 ± 15.17 %
  blood plasma ET: 46.38 ± 9.02 pg/mL
  blood plasma TXB2: 134.40 ± 46.48 pg/mL
ET, TXB2, 6-Keto-PGF1α; 90 min after dosage
  6-Keto-PGF1α: 1912.4 ± 258.5
  6-Keto-PGF1α, changing in percentage (before dosage = 100%): 132.75 ± 28.52 %
  ET, changing in percentage (before dosage = 100%): 71.69 ± 12.10 %
  TXB2, changing in percentage (before dosage = 100%): 69.72 ± 8.76 %
  blood plasma ET: 39.97 ± 7.95 pg/mL
  blood plasma TXB2: 1093.4 ± 320.9 pg/mL
ET, TXB2, 6-Keto-PGF1α; 120 min after dosage
  6-Keto-PGF1α: 1982.8 ± 574.2
  6-Keto-PGF1α, changing in percentage (before dosage = 100%): 139.39 ± 56.36 %
  ET, changing in percentage (before dosage = 100%): 74.30 ± 17.04 %
  TXB2, changing in percentage (before dosage = 100%): 63.03 ± 14.20 %
  blood plasma ET: 41.42 ± 15.69 pg/mL
  blood plasma TXB2: 1284.1 ± 695.0 pg/mL
ET, TXB2, 6-Keto-PGF1α; 180 min after dosage
  6-Keto-PGF1α: 1705.2 ± 412.2
  6-Keto-PGF1α, changing in percentage (before dosage = 100%): 119.08 ± 39.78%
  ET, changing in percentage (before dosage = 100%): 82.16 ± 14.09 %
  TXB2, changing in percentage (before dosage = 100%): 62.77 ± 14.51 %
  blood plasma ET: 45.74 ± 9.40 pg/mL
  blood plasma TXB2: 1032.7 ± 343.1 pg/mL
ET, TXB2, 6-Keto-PGF1α; after hypoxia before dosage
  6-Keto-PGF1α: 1478.8 ± 218.6
  6-Keto-PGF1α, changing in percentage: 92.3 ± 5.53%
  ET, changing in percentage: 178.30 ± 57.33%
  TXB2, changing in percentage: 101.14 ± 19.90 %
  blood plasma ET: 55.51 ± 3.59 pg/mL
  blood plasma TXB2: 143.40 ± 28.64 pg/mL
ET, TXB2, 6-Keto-PGF1α; before hypoxia (normal value)
  6-Keto-PGF1α: 1597.4 ± 185.3
ET, TXB2, 6-Keto-PGF1α; before hypoxia (normal)
  blood plasma ET: 34.41 ± 9.41 pg/mL
  blood plasma TXB2: 106.40 ± 19.12 pg/mL
SOD, MDA
  MDA, blood serum: 5.29 ± 1.07 (μ mol/L) × 10^−3
  SOD, blood serum: 817.6 ± 115.6 U/ml
Myocardial ischemia; 15 min after dosage
  N-ST: 29.80
  N-ST, changing in percentage (before dosage = 100%): 99.33%
  Σ-ST: 277.80
  Σ-ST, changing in percentage (before dosage = 100%): 91.83%
Myocardial ischemia; 30 min after dosage
  N-ST: 29.60
  N-ST, changing in percentage (before dosage = 100%): 98.67%
  Σ-ST: 226.20
  Σ-ST, changing in percentage (before dosage = 100%): 74.87%
Myocardial ischemia; 45 min after dosage
  N-ST: 29.20
  N-ST, changing in percentage (before dosage = 100%): 97.33%
  Σ-ST: 213.40
  Σ-ST, changing in percentage (before dosage = 100%): 70.59%
Myocardial ischemia; 60 min after dosage
  N-ST: 28.40
  N-ST, changing in percentage (before dosage = 100%): 94.67%
  Σ-ST: 186.20
  Σ-ST, changing in percentage (before dosage = 100%): 61.61%
Myocardial ischemia; 90 min after dosage
  N-ST: 27.00
  N-ST, changing in percentage (before dosage = 100%): 90.00%
  Σ-ST: 175.20
  Σ-ST, changing in percentage (before dosage = 100%): 57.95%
Myocardial ischemia; 120 min after dosage
  N-ST: 26.80
  N-ST, changing in percentage (before dosage = 100%): 89.33%
  Σ-ST: 468.00
  Σ-ST, changing in percentage (before dosage = 100%): 55.60%
Myocardial ischemia; 180 min after dosage
  N-ST: 25.20
  N-ST, changing in percentage (before dosage = 100%): 84.00%
  Σ-ST: 122.80
  Σ-ST, changing in percentage (before dosage = 100%): 40.63%
Myocardial ischemia; before dosage
  N-ST: 30.00
  Σ-ST: 302.80
[1]; 30 min after dosage
  VO2, changing percentage (before dosage = 100%): 97.70 ± 10.36%
  venous oxygen volume (VO2): 16.08 ± 1.13 ml %
[1]; 60 min after dosage
  VO2, changing percentage (before dosage = 100%): 95.95 ± 8.27%
  venous oxygen volume (VO2): 15.84 ± 1.43 ml %
[1]; 90 min after dosage
  VO2, changing percentage (before dosage = 100%): 96.37 ± 5.54%
  venous oxygen volume (VO2): 15.92 ± 1.29 ml %
[1]; 120 min after dosage
  VO2, changing percentage (before dosage = 100%): 92.15 ± 9.42%
  venous oxygen volume (VO2): 15.20 ± 1.50 ml %
[1]; 180 min after dosage
  VO2, changing percentage (before dosage = 100%): 89.62 ± 11.94%
  venous oxygen volume (VO2): 14.82 ± 2.28 ml %
[1]; after hypoxia (value before dosage)
  venous oxygen volume (VO2): 16.56 ± 1.61 ml %
[1]; after hypoxia, before dosage
  VO2, changing percentage: 111.45 ± 33.86%
[1]; before hypoxia (normal value)
  venous oxygen volume (VO2): 15.44 ± 2.42 ml %
Myocardial infarction
  Area of Cardiac Chamber: 5377.8 ± 411.2 mm2
  Area of Infarction: 378.98 ± 138.41 mm2
  Infarction Location/Cardiac Chamber: 7.22 ± 2.87
  Infarction Location/Heart: 2.52 ± 1.35
  Myocardial area: 14096.5 ± 3056.4 mm2
